Test results published in US8871753B2, “Macrocyclic compounds and their use as kinase inhibitors” (Incyte Corporation, priority 2008, dated 2014).
Counter-ions that a name gives are not always drawn. Like-named read-outs stand apart in the source and are kept apart here.

Columns and labels:
[1] = from COc1ccc(Nc2nc(Cl)ncc2Cl)cc1CCc1cncc(N)c1; cn_pd bond; 13-membered ring; Pd(OAc)2/Xantphos/Cs2CO3; 1,4-dioxane/DMF 1:1; 77.0 mM; 150.0 °C; 0.33 h
[2] = biological target: T1, Recombinant Human Anaplastic Lymphoma Kinase (Homo sapiens, UniProt Q9UM73); assay: ALK HTRF kinase assay; type: biochemical; settings: for ALK % inhibition at a concentration of 500 nM or 1 mM: compound at a concentration of 500 nM or 1 mM
T1 construct: purchased Invitrogen, Carlsbad, Calif
Summary of the method: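 Recombinant human ALK phosphorylated a biotinylated synthetic peptide. Phosphotyrosine was detected by TR-FRET between a Eu-labelled anti-phosphotyrosine antibody and streptavidin-allophycocyanin. IC50 values came from fitting signal against inhibitor concentration to a four-parameter logistic equation with variable Hill slope.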

[3] = cn_pd bond, 13-membered ring, Pd(OAc)2/Xantphos/Cs2CO3/Et3N
[4] = biological target: T2, human JAK3 (a.a. 781-1124) (Homo sapiens, UniProt P52333); assay: In vitro JAK kinase assay (HTRF, phosphorylation of a biotinylated peptide), JAK3; type: biochemical
T2 construct: JAK3 (a.a. 781-1124); His tag (N); made in house; host or cells: insect cells (baculovirus)
Summary of the method: (§1)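 Kinase reactions ran at room temperature for 1 h with ATP matched per isoform (JAK1 90 μM, JAK2 30 μM, JAK3 3 μM). After an EDTA stop, the phosphorylated biotin-peptide was read by HTRF using Eu-Py20 and SA-APC after 40 min binding.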

[5] = biological target: T3, human JAK1 (a.a. 837-1142) (Homo sapiens, UniProt P23458); assay: In vitro JAK kinase assay (HTRF, phosphorylation of a biotinylated peptide), JAK1; type: biochemical; settings: read-out: JAK1 IC50
T3 construct: human JAK1 (a.a. 837-1142); His tag (N); made in house; host or cells: insect cells (baculovirus)
Summary of the method: as §1

[6] = biological target: T4, human JAK2 (a.a. 828-1132) (Homo sapiens, UniProt O60674); assay: In vitro JAK kinase assay (HTRF, phosphorylation of a biotinylated peptide), JAK2; type: biochemical
T4 construct: JAK2 (a.a. 828-1132); His tag (N); made in house; host or cells: insect cells (baculovirus)
Summary of the method: as §1

[7] = biological target: TYK2 (Homo sapiens, UniProt P29597); assay: TYK2 kinase inhibition (Table A1); type: biochemical
[8] = from OCCc1cccc(Nc2nc(Nc3cccc(O)c3)ncc2Cl)c1; ether bond; 14-membered ring; PPh3/DIAD; THF; 8.5 mM; 25.0 °C; 2.0 h
[9] = test system: NOD mouse; settings: NOD mouse model of autoimmune type 1 diabetes; cited from earlier work
[10] = patients; cited from earlier work
[11] = test system: myeloid dendritic cells (DCs); settings: CD40-induced maturation of myeloid DCs; cited from earlier work
[12] = test system: IL-6-dependent MM cell lines; settings: cited from earlier work

TYK2, sequence (P29597 whole entry): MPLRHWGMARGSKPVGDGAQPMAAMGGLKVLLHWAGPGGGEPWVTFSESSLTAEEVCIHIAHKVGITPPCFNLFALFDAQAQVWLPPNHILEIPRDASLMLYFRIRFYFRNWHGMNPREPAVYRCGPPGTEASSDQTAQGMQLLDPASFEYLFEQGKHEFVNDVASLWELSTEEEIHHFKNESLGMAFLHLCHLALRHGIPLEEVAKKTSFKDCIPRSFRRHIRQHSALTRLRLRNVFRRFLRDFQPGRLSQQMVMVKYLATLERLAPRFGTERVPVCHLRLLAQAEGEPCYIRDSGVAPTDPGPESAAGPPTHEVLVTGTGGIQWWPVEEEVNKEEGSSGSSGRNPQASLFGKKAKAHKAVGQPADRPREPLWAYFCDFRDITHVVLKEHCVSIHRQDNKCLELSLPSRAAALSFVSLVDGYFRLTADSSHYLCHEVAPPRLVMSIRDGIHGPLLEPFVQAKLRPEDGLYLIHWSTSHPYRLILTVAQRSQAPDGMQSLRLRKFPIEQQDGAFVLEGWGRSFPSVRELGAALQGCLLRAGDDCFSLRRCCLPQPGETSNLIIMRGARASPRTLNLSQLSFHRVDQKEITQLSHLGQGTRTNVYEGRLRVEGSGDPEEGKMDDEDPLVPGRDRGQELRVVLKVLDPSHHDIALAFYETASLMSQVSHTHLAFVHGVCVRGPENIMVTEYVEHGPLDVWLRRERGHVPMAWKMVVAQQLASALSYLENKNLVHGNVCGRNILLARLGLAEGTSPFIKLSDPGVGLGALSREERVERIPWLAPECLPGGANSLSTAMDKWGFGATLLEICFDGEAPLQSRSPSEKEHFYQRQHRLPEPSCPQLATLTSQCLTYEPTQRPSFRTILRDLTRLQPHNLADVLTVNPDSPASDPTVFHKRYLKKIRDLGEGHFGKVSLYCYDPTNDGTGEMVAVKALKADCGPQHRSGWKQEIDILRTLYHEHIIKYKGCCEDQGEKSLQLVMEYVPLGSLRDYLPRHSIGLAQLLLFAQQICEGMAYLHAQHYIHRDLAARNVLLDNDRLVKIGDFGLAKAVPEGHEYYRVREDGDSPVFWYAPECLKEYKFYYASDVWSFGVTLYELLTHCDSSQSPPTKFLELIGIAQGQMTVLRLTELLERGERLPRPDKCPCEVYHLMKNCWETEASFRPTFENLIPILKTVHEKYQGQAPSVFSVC
T4 sequence (O60674 828-1132): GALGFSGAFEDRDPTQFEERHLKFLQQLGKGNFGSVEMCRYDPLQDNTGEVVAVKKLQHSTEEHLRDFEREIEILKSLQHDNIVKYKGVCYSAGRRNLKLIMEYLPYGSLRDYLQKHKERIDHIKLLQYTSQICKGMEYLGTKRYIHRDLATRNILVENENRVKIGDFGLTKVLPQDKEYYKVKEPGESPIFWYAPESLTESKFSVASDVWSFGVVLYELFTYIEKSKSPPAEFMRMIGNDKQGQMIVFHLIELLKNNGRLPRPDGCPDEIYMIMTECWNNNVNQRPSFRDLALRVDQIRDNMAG
T3 sequence (P23458 849-1154): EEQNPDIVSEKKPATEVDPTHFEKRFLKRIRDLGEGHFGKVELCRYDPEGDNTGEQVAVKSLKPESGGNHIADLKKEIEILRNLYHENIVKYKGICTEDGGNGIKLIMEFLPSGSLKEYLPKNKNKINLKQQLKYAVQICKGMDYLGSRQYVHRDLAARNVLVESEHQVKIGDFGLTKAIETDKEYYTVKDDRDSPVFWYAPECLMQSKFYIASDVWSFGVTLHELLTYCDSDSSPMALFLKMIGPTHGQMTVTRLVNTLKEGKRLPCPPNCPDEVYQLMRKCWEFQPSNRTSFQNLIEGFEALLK
T1 sequence (Q9UM73 19-1620): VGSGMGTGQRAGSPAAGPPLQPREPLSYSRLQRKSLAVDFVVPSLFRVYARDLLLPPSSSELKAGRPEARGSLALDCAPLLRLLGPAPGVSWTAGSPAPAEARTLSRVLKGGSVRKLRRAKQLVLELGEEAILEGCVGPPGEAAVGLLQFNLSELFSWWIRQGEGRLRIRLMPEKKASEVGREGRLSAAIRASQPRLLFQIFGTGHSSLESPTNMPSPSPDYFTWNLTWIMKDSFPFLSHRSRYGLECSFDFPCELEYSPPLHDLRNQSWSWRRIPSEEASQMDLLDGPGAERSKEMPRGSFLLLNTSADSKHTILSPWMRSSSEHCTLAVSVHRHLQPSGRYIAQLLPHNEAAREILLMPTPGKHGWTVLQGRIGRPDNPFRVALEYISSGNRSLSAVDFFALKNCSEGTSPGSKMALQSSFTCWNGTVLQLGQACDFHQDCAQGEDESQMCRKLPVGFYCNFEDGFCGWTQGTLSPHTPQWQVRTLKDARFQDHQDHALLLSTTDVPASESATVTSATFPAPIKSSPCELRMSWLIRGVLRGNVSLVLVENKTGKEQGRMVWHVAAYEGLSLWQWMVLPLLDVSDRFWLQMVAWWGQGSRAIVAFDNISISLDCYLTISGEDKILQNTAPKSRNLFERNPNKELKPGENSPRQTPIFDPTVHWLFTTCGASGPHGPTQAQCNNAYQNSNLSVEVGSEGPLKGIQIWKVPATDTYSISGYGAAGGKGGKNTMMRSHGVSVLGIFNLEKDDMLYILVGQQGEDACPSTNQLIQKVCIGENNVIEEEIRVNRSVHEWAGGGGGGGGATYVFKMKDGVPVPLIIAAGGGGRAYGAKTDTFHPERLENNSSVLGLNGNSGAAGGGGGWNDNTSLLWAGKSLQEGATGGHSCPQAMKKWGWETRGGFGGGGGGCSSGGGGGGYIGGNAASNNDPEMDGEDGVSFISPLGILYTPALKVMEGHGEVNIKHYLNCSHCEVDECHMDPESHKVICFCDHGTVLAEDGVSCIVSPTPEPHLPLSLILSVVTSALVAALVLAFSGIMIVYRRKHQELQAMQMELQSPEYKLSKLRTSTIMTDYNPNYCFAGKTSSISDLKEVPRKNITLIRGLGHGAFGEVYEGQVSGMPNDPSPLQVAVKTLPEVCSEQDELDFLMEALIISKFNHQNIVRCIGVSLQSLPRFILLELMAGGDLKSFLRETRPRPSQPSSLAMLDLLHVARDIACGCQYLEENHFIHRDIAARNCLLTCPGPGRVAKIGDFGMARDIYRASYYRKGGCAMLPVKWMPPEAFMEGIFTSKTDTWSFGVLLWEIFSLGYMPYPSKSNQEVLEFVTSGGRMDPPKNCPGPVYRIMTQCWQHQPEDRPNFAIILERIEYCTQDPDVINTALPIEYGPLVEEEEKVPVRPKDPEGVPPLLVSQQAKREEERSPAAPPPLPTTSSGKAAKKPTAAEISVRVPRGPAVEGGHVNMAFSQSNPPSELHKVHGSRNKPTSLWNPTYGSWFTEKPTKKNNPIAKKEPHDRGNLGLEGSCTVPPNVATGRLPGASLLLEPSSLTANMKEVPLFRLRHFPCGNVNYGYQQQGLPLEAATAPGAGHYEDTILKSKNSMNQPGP
T2 sequence (P52333 781-1124): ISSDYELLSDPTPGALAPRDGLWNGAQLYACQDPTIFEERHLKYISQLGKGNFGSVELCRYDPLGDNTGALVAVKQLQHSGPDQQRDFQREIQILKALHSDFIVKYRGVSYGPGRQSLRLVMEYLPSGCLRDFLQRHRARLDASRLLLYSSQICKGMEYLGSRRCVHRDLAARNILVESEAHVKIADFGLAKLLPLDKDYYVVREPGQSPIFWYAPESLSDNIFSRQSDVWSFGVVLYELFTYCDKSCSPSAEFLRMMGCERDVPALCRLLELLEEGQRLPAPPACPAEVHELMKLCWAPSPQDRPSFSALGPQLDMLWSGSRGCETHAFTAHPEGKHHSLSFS

Structure (SMILES)	ALK % inhibition at a concentration of 500 nM or 1 mM [2]	IC50 [4]	IC50 [5]	IC50 [6]	IC50 [7]	also measured
COc1ccc2cc1CCc1cncc(c1)Nc1ncc(Cl)c(n1)N2	–	–	–	–	–	ring closure, crude yield [1]: 85%
Clc1cnc2nc1Nc1cccc(c1)CCOc1cccc(c1)N2 [Example D5, 6-Chloro-16-oxa-2,4,8,23-tetraazatetracyclo[15.3.1.1(3,7).1(9,13)]tricosa-1(21),3(23),4,6,9(22),10,12,17,19-nonaene trifluoroacetate]	–	–	–	–	–	ring closure, yield after HPLC [8]: 20%; IC50 ([2]; Table D1, 90 μM ATP): 509 nM; IC50 ([4]; Table D1): 36 nM; IC50 ([5]; Table D1): 30 nM; IC50 ([6]; Table D1): 15 nM; IC50 ([7]; Table D1): 12 nM
COc1cc2ncnc(Nc3ccc(O)cc3)c2cc1OC [JANEX-1]	–	–	–	–	–	onset of diabetes [9]: delayed the onset of diabetes
C#Cc1cccc(Nc2ncnc3cc(OCCOC)c(OCCOC)cc23)c1 [Tarceva]	–	–	–	–	–	acneiform rash [10]: induced acneiform rash with some patients
COc1cc2ncnc(Nc3ccc(O)c(Br)c3)c2cc1OC [WHI-P-154]	–	–	–	–	–	CD40-induced effects (JAK3 activity, costimulatory molecule expression, IL-12 production, allogeneic stimulatory capacity) [11]: prevented these effects
CC(C)(C)c1nc2c3cc[nH]c(=O)c3c3cc(F)ccc3c2[nH]1 [pyridone 6]	–	–	–	–	–	STAT3 phosphorylation [12]: inhibited; tumor cell proliferation and survival [12]: inhibited

Further lines, with some results ahead:

ALK % inhibition at a concentration of 500 nM or 1 mM [2]	IC50 [4]	IC50 [5]	IC50 [6]	IC50 [7]	Structure (SMILES)	also measured
26%	39 nM	14 nM	9.5 nM	13 nM	Clc1cnc2nc1Nc1cccc(c1)CCc1cc(ccn1)N2 [Example C12, 6-Chloro-2,4,8,17,22-pentaazatetracyclo[14.3.1.1(3,7).1(9,13)]docosa-1(20),3(22),4,6,9(21),10,12,16,18-nonaene]	ring closure, isolated yield ([3]; from Nc1ccnc(CCc2cccc(Nc3nc(Cl)ncc3Cl)c2)c1, 1,4-dioxane, 117.0 mM, 150.0 °C, 0.5 h): 36%
18%	154 nM	70 nM	17 nM	16 nM	Fc1cnc2nc1Nc1cccc(c1)CCc1cc(ccn1)N2 [Example C13, 6-Fluoro-2,4,8,17,22-pentaazatetracyclo[14.3.1.1(3,7).1(9,13)]docosa-1(20),3(22),4,6,9(21),10,12,16,18-nonaene]	ring closure, isolated yield ([3]; from Nc1ccnc(CCc2cccc(Nc3nc(Cl)ncc3F)c2)c1, 1,4-dioxane, 120.0 mM, 150.0 °C, 0.5 h): 41%
19%	17 nM	10 nM	2.8 nM	5.7 nM	Clc1cnc2nc1Nc1cccc(c1)/C=C\c1cc(ccn1)N2 [Example C14, (14Z)-6-Chloro-2,4,8,17,22-pentaazatetracyclo[14.3.1.1(3,7).1(9,13)]docosa-1(20),3(22),4,6,9(21),10,12,14,16,18-decaene]	ring closure, isolated yield ([3]; from Nc1ccnc(/C=C\c2cccc(Nc3nc(Cl)ncc3Cl)c2)c1, 1,4-dioxane, 114.0 mM, 150.0 °C, 0.5 h): 35%
6%	–	700 nM	87 nM	106 nM	Clc1cnc2nc1Nc1cccc(c1)CCc1ccnc(c1)N2 [Example C15, 6-Chloro-2,4,8,19,22-pentaazatetracyclo[14.3.1.1(3,7).1(9,13)]docosa-1(20),3(22),4,6,9(21),10,12,16,18-nonaene]	ring closure, isolated yield ([3]; from Nc1cc(CCc2cccc(Nc3nc(Cl)ncc3Cl)c2)ccn1, 1,4-dioxane/DMF 1:1, 57.0 mM, 160.0 °C, 0.33 h): 61%
14%	350 nM	> 1000 nM	60 nM	83 nM	Fc1cnc2nc1Nc1cccc(c1)CCc1ccnc(c1)N2 [Example C16, 6-Fluoro-2,4,8,19,22-pentaazatetracyclo[14.3.1.1(3,7).1(9,13)]docosa-1(20),3(22),4,6,9(21),10,12,16,18-nonaene]	ring closure, isolated yield ([3]; from Nc1cc(CCc2cccc(Nc3nc(Cl)ncc3F)c2)ccn1, 1,4-dioxane/DMF 1:1, 60.0 mM, 160.0 °C, 0.5 h): 30%
1%	> 1000 nM	> 1000 nM	> 1000 nM	> 1000 nM	Clc1cnc2nc1Nc1cccc(c1)CCc1cccc(n1)N2 [Example C17, 6-Chloro-2,4,8,20,22-pentaazatetracyclo[14.3.1.1(3,7).1(9,13)]docosa-1(20),3(22),4,6,9(21),10,12,16,18-nonaene]	ring closure, isolated yield ([3]; from Nc1cccc(CCc2cccc(Nc3nc(Cl)ncc3Cl)c2)n1, 1,4-dioxane/DMF 1:1, 75.0 mM, 160.0 °C, 0.5 h): 37%
3%	> 1000 nM	> 1000 nM	> 1000 nM	> 1000 nM	Fc1cnc2nc1Nc1cccc(c1)CCc1cccc(n1)N2 [Example C18, 6-Fluoro-2,4,8,20,22-pentaazatetracyclo[14.3.1.1(3,7).1(9,13)]docosa-1(20),3(22),4,6,9(21),10,12,16,18-nonaene]	ring closure, isolated yield ([3]; from Nc1cccc(CCc2cccc(Nc3nc(Cl)ncc3F)c2)n1, 1,4-dioxane/DMF 1:1, 60.0 mM, 160.0 °C, 1.0 h): 25%
